Laboratory results: US10576039B2, “Ophthalmic formulation comprising citicoline carried by liposome for the treatment of glaucoma” (Omikron Italia S.r.l., priority 2016, dated 2020)

Experiments:
[1] = Citicoline in vitreous humour and blood by HPLC after topical instillation of liposome solution; format: in vivo, male mice of Wistar-Kyoto strain
Source text: For the experimental group 12 animals were used for an adequate statistical management of the results (average, standard deviation and significance).
The used number of animals, following statistical evaluation, represents the minimum number therefrom it is possible to obtain significant data. In the study male mice of Wistar-Kyoto strain were used according to previous experiments performed by the research group.
The animals were kept and manipulated in a structure suitable for keeping the animals under optimum conditions (temperature, humidity, ventilation, hygienic conditions). In the study a formulation in solution for ophthalmic use was utilized constituted by […] liposomes including 2% citicoline sodium salt. […]
Moreover on each animal an endocardial blood sample was taken after total anaesthesia both before and after treatment, just before being sacrificed, by using a test tube with EDTA; on such sample, for each animal, the blood count and citicoline presence were determined. […]
After extraction and subsequent centrifugation at 13,000 rpm for 5 minutes at 5° C. the supernatant was taken and injected into a HPLC system equipped with a ultraviolet detector Diode Array and chromatographic column C18—Kromasil 250×4.6 mm with 5-μm particles. Of course, all samples, even the checks, were subjected to the same kind of treatment before being analysed in HPLC. […]

[2] = taken orally, cited from earlier work

vitreous humour citicoline as % of the amount applied topically ([1]; eyes treated topically with liposome solution for three days): 13% | presence/penetration of citicoline in the vitreous humour (in words) ([1]; topical treatment, HPLC elution profile, comparison with citicoline administered in solution (Parisi et al., 2015; Roberti et al., 2015)): present in high concentrations
Structure (SMILES): C[N+](C)(C)CCOP(=O)(O)OP(=O)([O-])OC[C@H]1O[C@@H](n2ccc(N)nc2=O)[C@H](O)[C@@H]1O [Citicoline, cytidine-5′-diphosphocholine]
time of plasma peak after ingestion ([2]; first peak): 1 h | time of larger second plasma peak ([2]; later peak): 24 h | fraction excreted in the feces [2]: less than 1%
